Data published in patent US12325685B2, “RXR agonist salt form, polymorphs thereof, and uses thereof” (Io Therapeutics, Inc., priority 2022, dated 2025).
In brackets after ≈: the same amount, converted by molar mass.

Tests used:
[1] = Approximate (thermodynamic) solubility in solvents at room temperature; format: physicochemical; conditions: for solubility: organic solvent or mixture, thermodynamic from solid
[2] = Kinetic solubility at 37° C. in water and three biorelevant media; format: physicochemical
Procedure: Example 7: Kinetic Solubility. Kinetic solubility measurements were conducted on Compound 1 (a free acid) and Form A Tris salt of Compound 1 at 37° C. in water and three biorelevant media: synthetic gastric fluid; fed synthetic small intestinal fluid; and fasting synthetic small intestinal fluid.

[3] = Fasting Synthetic Small Intestinal Fluid, 37° C., 1 Hr
[4] = Fasting Synthetic Small Intestinal Fluid, 37° C., 4 Hrs
[5] = Fasting Synthetic Small Intestinal Fluid, 37° C., 24 Hrs
[6] = Fed Synthetic Small Intestinal Fluid, 37° C., 1 Hr
[7] = Fed Synthetic Small Intestinal Fluid, 37° C., 4 Hrs
[8] = Fed Synthetic Small Intestinal Fluid, 37° C., 24 Hrs
[9] = Synthetic Gastric Fluid, 37° C., 1 Hr
[10] = Synthetic Gastric Fluid, 37° C., 4 Hrs
[11] = Synthetic Gastric Fluid, 37° C., 24 Hrs

Row | Structure (SMILES) | Observed kinetic aqueous solubility S [2, 3] | pH [2, 3] | Observed kinetic aqueous solubility S [2, 4] | pH [2, 4] | Observed kinetic aqueous solubility S [2, 5] | pH [2, 5] | Observed kinetic aqueous solubility S [2, 6] | pH [2, 6] | Observed kinetic aqueous solubility S [2, 7] | pH [2, 7] | pH [2, 8] | pH [2, 9] | pH [2, 10] | pH [2, 11] | Observed kinetic aqueous solubility S ([2]; Water, 37° C., 1 Hr) | pH ([2]; Water, 37° C., 1 Hr) | Observed kinetic aqueous solubility S ([2]; Water, 37° C., 4 Hrs) | pH ([2]; Water, 37° C., 4 Hrs) | Observed kinetic aqueous solubility S ([2]; Water, 37° C., 24 Hrs) | pH ([2]; Water, 37° C., 24 Hrs) | also measured
1 | CC(/C=C/[C@@H]1C[C@]1(C)c1ccc2c(c1)C(C)(C)CCC2(C)C)=C\C(=O)O [Compound 1, (2E,4E)-3-methyl-5-((1 S,2S)-2-methyl-2-(5,5,8,8-tetramethyl-5,6,7,8-tetrahydronaphthalen-2-yl)cyclopropyl)penta-2,4-dienoic acid] | 0.05 mg/mL | 6.48 | 0.06 mg/mL | 6.88 | 0.04 mg/mL | 7.50 | 0.10 mg/mL | 5.09 | 0.10 mg/mL | 5.17 | 5.21 | 1.67 | 1.78 | 1.92 | 0.03 mg/mL | 7.78 | 0.03 mg/mL | 7.83 | 0.01 mg/mL | 8.33 | Approximate Solubility ([1]; 2-Butanol, listed as Compound 1 (Free Acid)): 108.9 to 140.0 mg/mL; Approximate Solubility ([1]; Isopropanol, listed as Compound 1 (Free Acid)): 71.8 to 87.8 mg/mL; Approximate Solubility ([1]; Water, listed as Compound 1 (Free Acid)): 0.03 mg/mL; solubility ([1]; ethanol): 74.9 to 91.5 mg/mL (≈ 212 to 260 mM); solubility ([1]; methanol): 57.4 to 73.1 mg/mL (≈ 163 to 207 mM); Observed kinetic aqueous solubility S [2, 8]: 0.44 mg/mL; kinetic solubility in synthetic gastric fluid (in words) ([2]; synthetic gastric fluid): poor or undetectable; solubility kinetic at 4 h ([2]; synthetic gastric fluid, 37 °C, simulated gastric fluid, thermodynamic from solid, Synthetic Gastric Fluid, 37° C., 4 Hrs, ND = No Detectable signal by HPLC, read-out: Observed kinetic aqueous solubility S): 20 µg/mL (≈ 0.0567 mM)
2 | CC(/C=C/[C@@H]1C[C@]1(C)c1ccc2c(c1)C(C)(C)CCC2(C)C)=C\C(=O)O [Tris Form A] | 0.74 mg/mL | 6.93 | 0.83 mg/mL | 7.83 | 0.86 mg/mL | 9.37 | 2.54 mg/mL | 5.91 | 0.41 mg/mL | 6.84 | 7.33 | 1.76 | 1.96 | 2.12 | 0.29 mg/mL | 2.68 | 0.17 mg/mL | 3.21 | 0.14 mg/mL | 9.3 | Approximate Solubility ([1]; 2-Butanol, listed as TRIS salt Form A): >15.00 mg/mL; Approximate Solubility ([1]; Ethanol, listed as TRIS salt Form A): >40.00 mg/mL; Approximate Solubility ([1]; Isopropanol, listed as TRIS salt Form A): 8.83 to 10.60 mg/mL; Approximate Solubility ([1]; Methanol, listed as TRIS salt Form A): >88.00 mg/mL; Approximate Solubility ([1]; Water, listed as TRIS salt Form A): 0.29 mg/mL; solubility kinetic at 24 h ([2]; fed synthetic small intestinal fluid, 37 °C, fessif, thermodynamic from solid, Fed Synthetic Small Intestinal Fluid, 37° C., 24 Hrs, read-out: Observed kinetic aqueous solubility S): 340 µg/mL (≈ 0.964 mM); kinetic aqueous solubility compared to Compound 1 ([2]; relative to free acid, see Table 1): approximately an order of magnitude, or more; kinetic solubility in synthetic gastric fluid (in words) ([2]; synthetic gastric fluid): poor or undetectable
